Test results reported in US4255183A, “Substituted phenyl urea and herbicides for use in paddy field” (Hokko Chemical Industry Co., Ltd., priority 1977, dated 1981).
Like-named read-outs stand apart in the source and are kept apart here.

Experiments:
[1] = tested on: various weeds; settings: known upland herbicides; cited from earlier work
[2] = tested on: paddy rice; experiment: Test Example 1: pot test on selectivity, inhibition of paddy rice; type: in vivo; settings: for inhibition at 750 g/ha / inhibition at 1500 g/ha / inhibition at 3000 g/ha / inhibition at 6000 g/ha / inhibition at 9000 g/ha: Oryza sativa, 720 h
How it was run: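 Alluvial paddy soil in pots sown with Echinochloa crus-galli var. oryzicola (50 seeds) and paddy rice (30 seeds), submerged about 1 cm. Dry weights taken 30 days after chemical treatment; inhibition rate calculated relative to untreated area.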

[3] = tested on: paddy rice; settings: known upland herbicides; cited from earlier work
[4] = tested on: Umbrella plant; experiment: Test Example 5: Wagner pot test, herbicidal effect on umbrella plant; type: in vivo; settings: 20 days after application
Description: (§1) In a 1/7500 are Wagner pot, sieved paddy field soil (alluvial soil) was charged. Thereafter, in the center portion of the pot, 2 roots of paddy rice (Asahi species) at the 2- to 3-leaf stage were transplanted and 20 seeds of Bulrush per pot were seeded in the surface of the above soil. The pot was submerged at the depth of about 2 cm. The other Dopatrium junceum and umbrella plant were generated naturally. After seeding, when each of the weeds reached the same leaf age as defined in Table 5 given herein, a predetermined concentration of the emulsion prepared according to Example 4 was applied dropwise on the surface of the pot. The test was carried out by repeating the same test three times per area and the results were determined 20 days after the application of the chemicals with regard to the herbicidal effect and chemical injury on paddy rice on the basis of the evaluation index as shown below.
(§2) As the comparative chemicals Molinate, Benthiocarb and DCMU, those commercially available were used.
(§3) In the above table, the inhibition rate was calculated according to the method as described in Test Example 1.

[5] = tested on: Echinochloa crus-galli var. oryzicola; experiment: Test Example 1: pot test on selectivity, inhibition of Echinochloa crus-galli var. oryzicola; type: in vivo; settings: Echinochloa crus-galli, 720 h
How it was run: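 Paddy soil pots were sown with 50 barnyard grass and 30 rice seeds under about 1 cm flooding, and emulsion at set concentrations was dripped in at the weed's 1-leaf and 5-leaf stages. After 30 days, dry weights of weed and rice gave inhibition versus untreated.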

[6] = tested on: Dopatrium junceum; experiment: Test Example 5: Wagner pot test, herbicidal effect on Dopatrium junceum; type: in vivo
Description: as §1, §2, §3

[7] = tested on: paddy rice; experiment: Test Example 5: Wagner pot test, chemical injury on paddy rice; type: in vivo, paddy rice (Asahi species); note: key: 5: Completely killed; 4: Considerably injured; 3: Moderately injured; 2: A little injured; 1: Slightly injured; 0: Not injured
Description: as §1, §2

[8] = tested on: Bulrush; experiment: Test Example 5: Wagner pot test, herbicidal effect on Bulrush; type: in vivo
Description: as §1, §2, §3

[9] = read-out: Inhibition (%) by treatment at 1-leaf stage, paddy rice
[10] = read-out: Inhibition (%) by treatment at 5-leaf stage, paddy rice
[11] = read-out: Inhibition (%) by treatment at 1-leaf stage, E. crus-galli var. oryzicola
[12] = read-out: Inhibition (%) by treatment at 5-leaf stage, E. crus-galli var. oryzicola
[13] = 300 g/10a, leaf age 3, 20 days after application
[14] = 600 g/10a, leaf age 3, 20 days after application

CN(C)C(=O)Nc1ccc(Cl)c(Cl)c1 [DCMU, 3-(3,4-dichlorophenyl)-1,1-dimethyl urea]
herbicidal activity against various weeds [1]: strong herbicidal activity
inhibition at 750 g/ha [2, 9]: 92%
inhibition at 1500 g/ha [2, 9]: 100%
inhibition at 3000 g/ha [2, 9]: 100%
inhibition at 6000 g/ha [2, 9]: 100%
inhibition at 9000 g/ha [2, 9]: 100%
inhibition at 750 g/ha [2, 10]: 61%
inhibition at 1500 g/ha [2, 10]: 100%
inhibition at 3000 g/ha [2, 10]: 100%
inhibition at 6000 g/ha [2, 10]: 100%
inhibition at 9000 g/ha [2, 10]: 100%
selectivity between Echinochloa crus-galli var. oryzicola and paddy rice ([2]; in vivo): kill not only Echinochloa crus-galli var. oryzicola but also paddy rice
chemical injury to paddy rice [3]: strong chemical injury to paddy rice
Weed kill degree, Umbrella plant ([4]; 300 g/10a, leaf age 2 (first group of columns)): 5 (100)
Weed kill degree, Umbrella plant ([4]; 300 g/10a, leaf age 2 (second group of columns)): 4-5
Weed kill degree, Umbrella plant ([4]; 600 g/10a, leaf age 2 (first group of columns)): 5 (100)
Weed kill degree, Umbrella plant ([4]; 600 g/10a, leaf age 2 (second group of columns)): 5 (100)
inhibition at 750 g/ha [5, 11]: 91%
inhibition at 1500 g/ha [5, 11]: 100%
inhibition at 3000 g/ha [5, 11]: 100%
inhibition at 6000 g/ha [5, 11]: 100%
inhibition at 9000 g/ha [5, 11]: 100%
inhibition at 750 g/ha [5, 12]: 76%
inhibition at 1500 g/ha [5, 12]: 100%
inhibition at 3000 g/ha [5, 12]: 100%
inhibition at 6000 g/ha [5, 12]: 100%
inhibition at 9000 g/ha [5, 12]: 100%
Weed kill degree, Dopatrium junceum ([6]; 300 g/10a, leaf age 2, 20 days after application): 5 (100)
Weed kill degree, Dopatrium junceum [6, 13]: 5 (100)
Weed kill degree, Dopatrium junceum ([6]; 600 g/10a, leaf age 2, 20 days after application): 5 (100)
Weed kill degree, Dopatrium junceum [6, 14]: 5 (100)
Chemical injury on paddy rice ([7]; 300 g/10a, 3 tillers, 20 days after application): 4
Chemical injury on paddy rice [7, 13]: 5
Chemical injury on paddy rice ([7]; 600 g/10a, 3 tillers, 20 days after application): 5
Chemical injury on paddy rice [7, 14]: 5
Weed kill degree, Bulrush [8, 13]: 5 (100)
Weed kill degree, Bulrush ([8]; 300 g/10a, leaf age 3-5, 20 days after application): 5 (100)
Weed kill degree, Bulrush [8, 14]: 5 (100)
Weed kill degree, Bulrush ([8]; 600 g/10a, leaf age 3-5, 20 days after application): 5 (100)
